From patent US20050281814A1, “Combination radiation therapy and chemotherapy in conjunction with administration of growth factor receptor antibody” (priority 2000, published 2005)

Experiments:
SW948 cells = experiment: SW948 colon tumor xenograft study with IMC-C225, CPT-11 and RT; type: in vivo, athymic nude mice; conditions: s.c. SW948 tumors, n=7/group, RT 3 Gy q6d
MiaPaCa-2 cells [1] = experiment: In vitro cell proliferation, MiaPaCa-2; type: cell-based, human
Source text: (§1) Various combinations of treatment modality were studied in vitro.

MiaPaCa-2 cells [2] = experiment: Apoptotic cell death in vitro (annexin V-FITC), MiaPaCa-2; type: cell-based, human; conditions: MiaPaCa-2, p-value<0.05; not enhanced by any other treatment
Source text: Early stages of apoptosis were identified using an annexin V-FITC apoptosis detection kit (BioVision Research Products, Palo Alto, Calif.). In studies of radiation cell survival assays, survival data was fitted to the linear quadratic (LQ) and single hit multi-target (SHMT) radiobiological models using Fit v. 2.4 software kindly provided by Dr. N. Albright, University of California at San Francisco.
as §1

[3] = test system: Mia-PaCa-2 human pancreatic cancer cells; experiment: MiaPaCa-2 xenograft tumor therapy study with IMC-C225, gemcitabine and radiation; type: in vivo, athymic nude mice; conditions: s.c. Mia-PaCa-2 tumors, n=8/group, RT 3 Gy q6d
Protocol: Athymic nude mice were implanted subcutaneously with 2×10^7 Mia-PaCa-2 cells mixed with Matrigel.
MiaPaCa-2 cells were mixed with Matrigel (1:1) and 2×10^7 cells injected s.c. into athymic nude mice on day 0. […] Four groups of mice received gemcitabine (120 mg/kg) i.v. on days 23, 29, 35, 41, 47, and 54. In four groups of mice, tumors were exposed to six fractions of 3 Gy ^60Co radiation on days 24, 30, 36, 42, 48, and 55. The results are presented as the change in tumor size relative to baseline size on day 22. The MiaPaCa-2 experiment was terminated after 333 days.
In the animal model tumor therapy studies, multiple endpoints were examined and appropriate statistical tests were conducted to address differences between treatment groups with respect to each endpoint. The endpoints included, the size of the tumor, which was computed for each tumor at each time period, percent of original tumor size, computed for each tumor at each time point after baseline, regression, time to regression, and time that the tumor size reached twice the original tumor size (time to double). Inferences are made on the true median rather than the mean response, i.e. median tumor size or median time to double in size.

BxPC-3 cells = experiment: In vitro cell proliferation, BxPC-3; type: cell-based, human

Row | Structure (SMILES) | mean tumor size doubling time (SW948 cells; IMC-C225 1 mg q3d×12, CPT-11 33 mg/kg q4d) [days] | complete tumor regressions (SW948 cells; IMC-C225 1 mg q3d×12 i.p., CPT-11 33 mg/kg i.v. q4d, regressions/animals) | cell proliferation, combination of radiation (3 Gy) and gemcitabine (MiaPaCa-2 cells [1]; MiaPaCa-2) | inhibition of cell growth (MiaPaCa-2 cells [1]; MiaPaCa-2, 24 h exposure to the IC50 dose of gemcitabine) | apoptotic cell death (MiaPaCa-2 cells [2]) | mean tumor size doubling time ([3]; IMC-C225 1 mg q3d×12, GEM 120 mg/kg q6d) [days] | complete tumor regressions ([3]; IMC-C225 1 mg q3d×12 i.p., GEM 120 mg/kg q6d, regressions/animals) | cell proliferation, combination of radiation (3 Gy) and gemcitabine (BxPC-3 cells; BxPC-3) | inhibition of cell growth (BxPC-3 cells; BxPC-3, 24 h exposure to the IC50 dose of gemcitabine)
1 | CCc1c2c(nc3ccc(OC(=O)N4CCC(N5CCCCC5)CC4)cc13)-c1cc3c(c(=O)n1C2)COC(=O)[C@]3(O)CC [CPT-11, irinotecan] | 57 | 0/7 |  |  |  |  |  |  | 
2 | Nc1ccn([C@@H]2O[C@H](CO)[C@@H](O)C2(F)F)c(=O)n1 [gemcitabine] |  |  | decrease in cell proliferation | approximately 45% | small but significant increase | 22 | 0/8 | decrease in cell proliferation | approximately 55%
